Values quoted from earlier work as cited in patent US20050137163A1, “Modified hyaluronic acid for use in musculoskeletal tissue repair” (priority 2003, published 2005).

Conditions: investigated previously as an antimicrobial agent

concentration shown to be safe: up to 0.1 % weight
Substance: benzalconium chloride [BzCl]
